Measured values from patent publication US20240228489A1, “POSITIVE ALLOSTERIC MODULATORS OF THE MUSCARINIC ACETYLCHOLINE RECEPTOR M1” (Vanderbilt University, priority 2021, published 2024).
Values belong to the compound of their own block, whether it stands above or below them.

Assays:
human mAChR M1 [1] = target: T1, human mAChR M1 (Homo sapiens, UniProt P11229); experiment: mAChR M1 cell-based functional assay (calcium mobilization), PAM mode: increase in the EC20 acetylcholine response
T1 sequence (P11229 1-460): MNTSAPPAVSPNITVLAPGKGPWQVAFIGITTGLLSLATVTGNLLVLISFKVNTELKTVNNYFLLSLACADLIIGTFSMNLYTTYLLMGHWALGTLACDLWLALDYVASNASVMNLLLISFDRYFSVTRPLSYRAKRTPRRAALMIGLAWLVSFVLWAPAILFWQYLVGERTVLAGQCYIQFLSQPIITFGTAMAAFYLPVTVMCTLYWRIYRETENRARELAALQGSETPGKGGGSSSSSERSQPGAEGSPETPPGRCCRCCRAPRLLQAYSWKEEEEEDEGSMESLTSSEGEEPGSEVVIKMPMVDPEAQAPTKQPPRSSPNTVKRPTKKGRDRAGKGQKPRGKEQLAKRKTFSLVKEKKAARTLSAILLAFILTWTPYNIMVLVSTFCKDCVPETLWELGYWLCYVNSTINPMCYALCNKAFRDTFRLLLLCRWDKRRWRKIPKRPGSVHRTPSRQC
Summary of the method: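 PAM readout is the concentration-dependent rise in the EC20 acetylcholine calcium signal, fitted to a four-parameter logistic (EC50, Emax). Compounds were preincubated from 4 s before ACh at 144 s (EC20) and 230 s (EC80). hM1-expressing CHO-K1 cells loaded with Fluo-4, FDSS ratio read.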

human mAChR M1 [2] = target: T1, human mAChR M1; experiment: mAChR M1 cell-based functional assay (calcium mobilization), agonist mode: compound alone, Emax relative to acetylcholine maximum; settings: for EC50 / Agonist Activity Human M1 EC50: human mAChR M1; for Emax: relative to the maximum for acetylcholine
Summary of the method: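 Agonist activity is the concentration-dependent rise in intracellular calcium (Fluo-4, 1 Hz read) after compound addition, measured before any acetylcholine was added, in stable hM1 CHO-K1 cells. Curves were 11-point, 1:3 dilutions fitted by four-parameter logistic. Emax is given as a fraction of maximal acetylcholine response.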

Structure (SMILES): [2H]C1([2H])c2ncccc2C(=O)N1Cc1c(F)cc(-c2ccc(OC(C)COC)c3nn(C)cc23)cc1F (stereo not drawn) [Compound 133, 6-(2,6-difluoro-4-(7-((1-methoxypropan-2-yl)oxy)-2-methyl-2H-indazol-4-yl)benzyl)-6,7-dihydro-5H-pyrrolo[3,4-b]pyridin-5-one-7,7-d2]
- EC50 (human mAChR M1 [1]): 486 nM
- Emax (human mAChR M1 [1]): 79%
- EC50 (human mAChR M1 [2]): ≥ 10000 nM
- Emax (human mAChR M1 [2]): 35%

Structure (SMILES): [2H]C1([2H])c2ncccc2C(=O)N1Cc1c(F)cc(-c2ccc(OC3CCOC3)c3nn(C)cc23)cc1F (stereo not drawn) [Compound 127, 6-(2,6-difluoro-4-(2-methyl-7-((tetrahydrofuran-3-yl)oxy)-2H-indazol-4-yl)benzyl)-6,7-dihydro-5H-pyrrolo[3,4-b]pyridin-5-one-7,7-d2]
- EC50 (human mAChR M1 [1]): 486 nM
- Emax (human mAChR M1 [1]): 65%
- EC50 (human mAChR M1 [2]): 8400 nM
- Emax (human mAChR M1 [2]): 21%

Structure (SMILES): [2H]C1([2H])c2ncccc2C(=O)N1Cc1c(F)cc(-c2ccc(OC(F)F)c3nn(C)cc23)cc1F [Compound 102, 6-(4-(7-(difluoromethoxy)-2-methyl-2H-indazol-4-yl)-2,6-difluorobenzyl)-6,7-dihydro-5H-pyrrolo[3,4-b]pyridin-5-one-7,7-d2]
- EC50 (human mAChR M1 [1]): 469 nM
- Emax (human mAChR M1 [1]): 77%
- Agonist Activity Human M1 EC50 (human mAChR M1 [2]): Inactive
- Emax (human mAChR M1 [2]): 9%

Structure (SMILES): [2H]C1([2H])c2ncccc2C(=O)N1Cc1c(F)cc(-c2ccc(SC)c3nn(C)cc23)cc1F [Compound 181, 6-(2,6-difluoro-4-(2-methyl-7-(methylthio)-2H-indazol-4-yl)benzyl)-6,7-dihydro-5H-pyrrolo[3,4-b]pyridin-5-one-7,7-d2]
- EC50 (human mAChR M1 [1]): 475 nM
- Emax (human mAChR M1 [1]): 82%
- Agonist Activity Human M1 EC50 (human mAChR M1 [2]): Inactive
- Emax (human mAChR M1 [2]): 9%

Structure (SMILES): [2H]C1([2H])c2ncccc2C(=O)N1Cc1ccc(-c2cc3cn(C)nc3cc2C)cc1 [Compound 16, 6-(4-(2,6-dimethyl-2H-indazol-5-yl)benzyl)-6,7-dihydro-5H-pyrrolo[3,4-b]pyridin-5-one-7,7-d2]
- EC50 (human mAChR M1 [1]): > 10000 nM
- Emax (human mAChR M1 [1]): 55%
- Agonist Activity Human M1 EC50 (human mAChR M1 [2]): Inactive
- Emax (human mAChR M1 [2]): 3%

Structure (SMILES): [2H]C1([2H])c2ncccc2C(=O)N1Cc1c(F)cc(-c2cccc3nn(C)cc23)cc1OCC(C)C [Compound 210, 6-(2-fluoro-6-isobutoxy-4-(2-methyl-2H-indazol-4-yl)benzyl)-6,7-dihydro-5H-pyrrolo[3,4-b]pyridin-5-one-7,7-d2]
- EC50 (human mAChR M1 [1]): 865 nM
- Emax (human mAChR M1 [1]): 83%
- Agonist Activity Human M1 EC50 (human mAChR M1 [2]): Inactive
- Emax (human mAChR M1 [2]): 14%

Structure (SMILES): [2H]C1([2H])c2ncccc2C(=O)N1Cc1c(F)cc(-c2cc(F)cc3c2cnn3C([2H])([2H])[2H])cc1F [Compound 247, 6-(2,6-difluoro-4-(6-fluoro-1-(methyl-d3)-1H-indazol-4-yl)benzyl)-6,7-dihydro-5H-pyrrolo[3,4-b]pyridin-5-one-7,7-d2]
- EC50 (human mAChR M1 [1]): > 10000 nM
- Emax (human mAChR M1 [1]): 29%
- Agonist Activity Human M1 EC50 (human mAChR M1 [2]): Inactive
- Emax (human mAChR M1 [2]): 2%

Structure (SMILES): [2H]C1([2H])c2ncccc2C(=O)N1Cc1c(F)cc(-c2cccc3c2cnn3C(F)F)cc1F [Compound 243, 6-(4-(1-(difluoromethyl)-1H-indazol-4-yl)-2,6-difluorobenzyl)-6,7-dihydro-5H-pyrrolo[3,4-b]pyridin-5-one-7,7-d2]
- EC50 (human mAChR M1 [1]): > 10000 nM
- Emax (human mAChR M1 [1]): 34%
- Agonist Activity Human M1 EC50 (human mAChR M1 [2]): Inactive
- Emax (human mAChR M1 [2]): 5%

Structure (SMILES): [2H]C1([2H])c2ncccc2C(=O)N1Cc1c(F)cc(-c2ccc(Cl)c3nn(C)cc23)cc1F [Compound 40, 6-(4-(7-chloro-2-methyl-2H-indazol-4-yl)-2,6-difluorobenzyl)-6,7-dihydro-5H-pyrrolo[3,4-b]pyridin-5-one-7,7-d2]
- EC50 (human mAChR M1 [1]): 233 nM
- Emax (human mAChR M1 [1]): 66%
- Agonist Activity Human M1 EC50 (human mAChR M1 [2]): Inactive
- Emax (human mAChR M1 [2]): 1%

Structure (SMILES): [2H]C1([2H])c2ncccc2C(=O)N1Cc1ccc(-c2cc(C)c3nn(C)cc3c2)cc1 [Compound 17, 6-(4-(2,7-dimethyl-2H-indazol-5-yl)benzyl)-6,7-dihydro-5H-pyrrolo[3,4-b]pyridin-5-one-7,7-d2]
- EC50 (human mAChR M1 [1]): 853 nM
- Emax (human mAChR M1 [1]): 79%
- Agonist Activity Human M1 EC50 (human mAChR M1 [2]): Inactive
- Emax (human mAChR M1 [2]): 4%

Structure (SMILES): [2H]C1([2H])c2ncccc2C(=O)N1Cc1c(F)cc(-c2ccc(OCCOC)c3nn(C)cc23)cc1F [Compound 113, 6-(2,6-difluoro-4-(7-(2-methoxyethoxy)-2-methyl-2H-indazol-4-yl)benzyl)-6,7-dihydro-5H-pyrrolo[3,4-b]pyridin-5-one-7,7-d2]
- EC50 (human mAChR M1 [1]): 188 nM
- Emax (human mAChR M1 [1]): 75%
- EC50 (human mAChR M1 [2]): 5870 nM
- Emax (human mAChR M1 [2]): 41%

Structure (SMILES): [2H]C1([2H])c2ncccc2C(=O)N1Cc1c(F)cc(-c2cc(F)c(Cl)c3nn(C([2H])([2H])[2H])cc23)cc1F [Compound 248, 6-(4-(7-chloro-6-fluoro-2-(methyl-d3)-2H-indazol-4-yl)-2,6-difluorobenzyl)-6,7-dihydro-5H-pyrrolo[3,4-b]pyridin-5-one-7,7-d2]
- EC50 (human mAChR M1 [1]): > 10000 nM
- Emax (human mAChR M1 [1]): 34%
- Agonist Activity Human M1 EC50 (human mAChR M1 [2]): Inactive
- Emax (human mAChR M1 [2]): 2%

The next lines start with the values.

- EC50 (human mAChR M1 [1]): 317 nM
- Emax (human mAChR M1 [1]): 85%
- Agonist Activity Human M1 EC50 (human mAChR M1 [2]): Inactive
- Emax (human mAChR M1 [2]): 2%
Structure (SMILES): [2H]C1([2H])c2ncccc2C(=O)N1Cc1c(F)cc(-c2ccc(C)c3nn(C([2H])([2H])[2H])cc23)cc1F [Compound 52, 6-(2,6-difluoro-4-(7-methyl-2-(methyl-d3)-2H-indazol-4-yl)benzyl)-6,7-dihydro-5H-pyrrolo[3,4-b]pyridin-5-one-7,7-d2]

- EC50 (human mAChR M1 [1]): 1240 nM
- Emax (human mAChR M1 [1]): 74%
- Agonist Activity Human M1 EC50 (human mAChR M1 [2]): Inactive
- Emax (human mAChR M1 [2]): 2%
Structure (SMILES): [2H]C1([2H])c2ncccc2C(=O)N1Cc1ccc(-c2cc(F)cc3nn(C)cc23)cc1C [Compound 84, 6-(4-(6-fluoro-2-methyl-2H-indazol-4-yl)-2-methylbenzyl)-6,7-dihydro-5H-pyrrolo[3,4-b]pyridin-5-one-7,7-d2]

- EC50 (human mAChR M1 [1]): 161 nM
- Emax (human mAChR M1 [1]): 65%
- Agonist Activity Human M1 EC50 (human mAChR M1 [2]): Inactive
- Emax (human mAChR M1 [2]): 2%
Structure (SMILES): [2H]C([2H])([2H])Oc1cnc2c(c1)C(=O)N(Cc1ccc(-c3ccc4nn(C)cc4c3)cc1F)C2([2H])[2H] [Compound 111, 6-(2-fluoro-4-(2-methyl-2H-indazol-5-yl)benzyl)-3-(methoxy-d3)-6,7-dihydro-5H-pyrrolo[3,4-b]pyridin-5-one-7,7-d2]

- EC50 (human mAChR M1 [1]): 100 nM
- Emax (human mAChR M1 [1]): 77%
- Agonist Activity Human M1 EC50 (human mAChR M1 [2]): Inactive
- Emax (human mAChR M1 [2]): 6%
Structure (SMILES): [2H]C([2H])([2H])Oc1cnc2c(c1)C(=O)N(Cc1c(F)cc(-c3cccc4nn(C([2H])([2H])[2H])cc34)cc1F)C2([2H])[2H] [Compound 78, 6-(2,6-difluoro-4-(2-(methyl-d3)-2H-indazol-4-yl)benzyl)-3-(methoxy-d3)-6,7-dihydro-5H-pyrrolo[3,4-b]pyridin-5-one-7,7-d2]

- EC50 (human mAChR M1 [1]): 2710 nM
- Emax (human mAChR M1 [1]): 71%
- Agonist Activity Human M1 EC50 (human mAChR M1 [2]): Inactive
- Emax (human mAChR M1 [2]): 9%
Structure (SMILES): [2H]C1([2H])c2ncccc2C(=O)N1Cc1c(F)cc(-c2ccnc3nn(C([2H])([2H])[2H])cc23)cc1F [Compound 188, 6-(2,6-difluoro-4-(2-(methyl-d3)-2H-pyrazolo[3,4-b]pyridin-4-yl)benzyl)-6,7-dihydro-5H-pyrrolo[3,4-b]pyridin-5-one-7,7-d2]

- EC50 (human mAChR M1 [1]): 1340 nM
- Emax (human mAChR M1 [1]): 79%
- EC50 (human mAChR M1 [2]): ≥ 10000 nM
- Emax (human mAChR M1 [2]): 15%
Structure (SMILES): [2H]C1([2H])c2ncccc2C(=O)N1Cc1ccc(-c2ccc(OCCOC(C)C)c3nn(C)cc23)cc1F [Compound 153, 6-(2-fluoro-4-(7-(2-isopropoxyethoxy)-2-methyl-2H-indazol-4-yl)benzyl)-6,7-dihydro-5H-pyrrolo[3,4-b]pyridin-5-one-7,7-d2]

- EC50 (human mAChR M1 [1]): 332 nM
- Emax (human mAChR M1 [1]): 83%
- EC50 (human mAChR M1 [2]): 5200 nM
- Emax (human mAChR M1 [2]): 43%
Structure (SMILES): [2H]C1([2H])c2ncccc2C(=O)N1Cc1c(C)cc(-c2ccnc3nn(C)cc23)cc1F [Compound 201, 6-(2-fluoro-6-methyl-4-(2-methyl-2H-pyrazolo[3,4-b]pyridin-4-yl)benzyl)-6,7-dihydro-5H-pyrrolo[3,4-b]pyridin-5-one-7,7-d2]

- EC50 (human mAChR M1 [1]): 120 nM
- Emax (human mAChR M1 [1]): 79%
- EC50 (human mAChR M1 [2]): 4930 nM
- Emax (human mAChR M1 [2]): 25%
Structure (SMILES): [2H]C([2H])([2H])Oc1cnc2c(c1)C(=O)N(Cc1ccc(-c3cccc4nn(C)cc34)cc1F)C2([2H])[2H] [Compound 82, 6-(2-fluoro-4-(2-methyl-2H-indazol-4-yl)benzyl)-3-(methoxy-d3)-6,7-dihydro-5H-pyrrolo[3,4-b]pyridin-5-one-7,7-d2]

- EC50 (human mAChR M1 [1]): 1100 nM
- Emax (human mAChR M1 [1]): 79%
- EC50 (human mAChR M1 [2]): ≥ 10000 nM
- Emax (human mAChR M1 [2]): 12%
Structure (SMILES): [2H]C1([2H])c2ncccc2C(=O)N1Cc1ccc(-c2ccc(OCC3CCCO3)c3nn(C)cc23)cc1F (stereo not drawn) [Compound 147, 6-(2-fluoro-4-(2-methyl-7-((tetrahydrofuran-2-yl)methoxy)-2H-indazol-4-yl)benzyl)-6,7-dihydro-5H-pyrrolo[3,4-b]pyridin-5-one-7,7-d2]
